Laboratory results: patent publication US20150352209A1, “NANOFIBER HAVING SELF-HEATING […] BIOLOGICALLY ACTIVE SUBSTANCE RELEASE PROPERTIES, PRODUCTION METHOD FOR SAME, AND NONWOVEN FABRIC HAVING SELF-HEATING […] BIOLOGICALLY ACTIVE SUBSTANCE RELEASE CAPABILITIES” (NATIONAL INSTITUTE FOR MATERIALS SCIENCE, priority 2013, published 2015)

Test system: COLO679 cell, which is a human melanoma cell line
Experiment: Cancer cell killing test (cell proliferation index)
Format: cell-based
Conditions: COLO679 cells; anticancer drug added instead of application of alternating magnetic field

COc1cccc2c1C(=O)c1c(O)c3c(c(O)c1C2=O)C[C@@](O)(C(=O)CO)C[C@@H]3O[C@H]1C[C@H](N)[C@H](O)[C@H](C)O1 [free anticancer drug, doxorubicin]
change of cell proliferation index (CPI): the decrease amount of the CPI was smaller than in the case in which the sample in Example 1 was used
